Results as given in patent US9499550B2 (BRISTOL-MYERS SQUIBB COMPANY, priority 2012, dated 2016).

Legend:
[1] = system: HCV genotype 1b (Con1) replicon in HUH-7 cells; assay: HCV replicon luciferase reporter assay, genotype 1b; format: cell-based; details: Hepatitis C virus, Huh-7, 72 h, HCV genotype 1b replicon luciferase, 3 days incubation, read-out: LE_1b (EC50, range)
In short: (§1)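 Replicon inhibition for both genotypes was measured as Renilla luciferase signal (EnduRen, 7.5 μM final, 2 h) after 3-day, 37° C exposure of replicon-bearing HUH-7 cells in 4% FCS DMEM, 0.5% DMSO. The 1b construct carries S1179I; the 1a H77 construct carries P1496L and S2204I. Twenty-point, 3-fold dilutions were fitted four-parametrically for EC50, and CC50 was taken from multiplexed Cell Titer-Blue.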

[2] = system: HCV genotype 1a (H77 strain) replicon in HUH-7 cells; assay: HCV replicon luciferase reporter assay, genotype 1a; format: cell-based; details: Hepatitis C virus, Huh-7, 72 h, HCV genotype 1a replicon luciferase, 3 days incubation, read-out: LE_1a (EC50, range)
In short: as §1

Row | SMILES | EC50 [1] | EC50 [2]
1 | CC[C@@H]1C[C@H](C)CC/C=C\[C@@H]2C[C@@]2(C(=O)NS(=O)(=O)C2(C)CC2)NC(=O)[C@@H]2C[C@@H](Oc3nccc4c5c(ccc34)CCCO5)CN2C(=O)[C@H]1NC(=O)OC(C)(C)C(F)(F)F [Compound 6062, 1,1,1-trifluoro-2-methylpropan-2-yl((2R,6S,7R,9R,13aS,14aR,16aS,Z)-2-((3,4-dihydro-2H-pyrano[2,3-f]isoquinolin-7-yl)oxy)-7-ethyl-9-methyl-14a-(((1-methylcyclopropyl)sulfonyl)carbamoyl)-5,16-dioxo-1,2,3,5,6,7,8,9,10,11,13a,14,14a,15,16,16a-hexadecahydrocyclopropa[e]pyrrolo[1,2-a][1,4]diazacyclopentadecin-6-yl)carbamate] | 0.51 to 1 nM | 1.01 to 5 nM
2 | CC[C@@H]1C[C@H](C)CC/C=C\[C@@H]2C[C@@]2(C(=O)NS(=O)(=O)C2(C)CC2)NC(=O)[C@@H]2C[C@@H](Oc3nc4c(c5ccccc35)CCCO4)CN2C(=O)[C@H]1NC(=O)OC(C)(C)C [Compound 6064, tert-butyl ((2R,6S,7R,9R,13aS,14aR,16aS,Z)-2-((2,3-dihydro-1H-pyrano[2,3-c]isoquinolin-6-yl)oxy)-7-ethyl-9-methyl-14a-(((1-methylcyclopropyl)sulfonyl)carbamoyl)-5,16-dioxo-1,2,3,5,6,7,8,9,10,11,13a,14,14a,15,16,16a-hexadecahydrocyclopropa[e]pyrrolo[1,2-a][1,4]diazacyclopentadecin-6-yl)carbamate] | 0.1 to 0.5 nM | 0.51 to 1 nM
3 | C[C@@H]1CC/C=C\[C@@H]2C[C@@]2(C(=O)NS(=O)(=O)C2(CF)CC2)NC(=O)[C@@H]2C[C@@H](Oc3nccc4c5c(ccc34)CCCO5)CN2C(=O)[C@@H](NC(=O)OC(C)(C)C(F)(F)F)[C@H](C)C1 [Compound 6066, 1,1,1-trifluoro-2-methylpropan-2-yl((2R,6S,7R,9R,13aS,14aR,16aS,Z)-2-((3,4-dihydro-2H-pyrano[2,3-f]isoquinolin-7-yl)oxy)-14a-(((1-(fluoromethyl)cyclopropyl)sulfonyl)carbamoyl)-7,9-dimethyl-5,16-dioxo-1,2,3,5,6,7,8,9,10,11,13a,14,14a,15,16,16a-hexadecahydrocyclopropa[e]pyrrolo[1,2-a][1,4]diazacyclopentadecin-6-yl)carbamate] | 1.01 to 5 nM | 1.01 to 5 nM
4 | CC[C@@H]1C[C@H](C)CC/C=C\[C@@H]2C[C@@]2(C(=O)NS(=O)(=O)C2(CF)CC2)NC(=O)[C@@H]2C[C@@H](Oc3nc4c(c5ccccc35)CCCO4)CN2C(=O)[C@H]1NC(=O)OC(C)(C)C(F)(F)F [Compound 6068, 1,1,1-trifluoro-2-methylpropan-2-yl((2R,6S,7R,9R,13aS,14aR,16aS,Z)-2-((2,3-dihydro-1H-pyrano[2,3-c]isoquinolin-6-yl)oxy)-7-ethyl-14a-(((1-(fluoromethyl)cyclopropyl)sulfonyl)carbamoyl)-9-methyl-5,16-dioxo-1,2,3,5,6,7,8,9,10,11,13a,14,14a,15,16,16a-hexadecahydrocyclopropa[e]pyrrolo[1,2-a][1,4]diazacyclopentadecin-6-yl)carbamate] | 0.51 to 1 nM | 1.01 to 5 nM
5 | CC[C@@H]1C[C@H](C)CC/C=C\[C@@H]2C[C@@]2(C(=O)NS(=O)(=O)C2(CF)CC2)NC(=O)[C@@H]2C[C@@H](Oc3nc4c(c5ccccc35)CCCO4)CN2C(=O)[C@H]1NC(=O)OC(C)(C)C(C)(F)F [Compound 6070, 3,3-difluoro-2-methylbutan-2-yl((2R,6S,7R,9R,13aS,14aR,16aS,Z)-2-((2,3-dihydro-1H-pyrano[2,3-c]isoquinolin-6-yl)oxy)-7-ethyl-14a-(((1-(fluoromethyl)cyclopropyl)sulfonyl)carbamoyl)-9-methyl-5,16-dioxo-1,2,3,5,6,7,8,9,10,11,13a,14,14a,15,16,16a-hexadecahydrocyclopropa[e]pyrrolo[1,2-a][1,4]diazacyclopentadecin-6-yl)carbamate] | 0.51 to 1 nM | 1.01 to 5 nM
6 | CC[C@@H]1C[C@H](C)CC/C=C\[C@@H]2C[C@@]2(C(=O)NS(=O)(=O)C2(CF)CC2)NC(=O)[C@@H]2C[C@@H](Oc3nc4c(c5ccccc35)CCCO4)CN2C(=O)[C@H]1NC(=O)OC(C)(C)C(F)F [Compound 6072, 1,1-difluoro-2-methylpropan-2-yl((2R,6S,7R,9R,13aS,14aR,16aS,Z)-2-((2,3-dihydro-1H-pyrano[2,3-c]isoquinolin-6-yl)oxy)-7-ethyl-14a-(((1-(fluoromethyl)cyclopropyl)sulfonyl)carbamoyl)-9-methyl-5,16-dioxo-1,2,3,5,6,7,8,9,10,11,13a,14,14a,15,16,16a-hexadecahydrocyclopropa[e]pyrrolo[1,2-a][1,4]diazacyclopentadecin-6-yl)carbamate] | 0.51 to 1 nM | 1.01 to 5 nM
7 | C[C@@H]1CC/C=C\[C@@H]2C[C@@]2(C(=O)NS(=O)(=O)C2(CF)CC2)NC(=O)[C@@H]2C[C@@H](Oc3nc4c(c5ccccc35)CCCO4)CN2C(=O)[C@@H](NC(=O)OC(C)(C)C(F)F)[C@H](C)C1 [Compound 6074, 1,1-difluoro-2-methylpropan-2-yl((2R,6S,7R,9R,13aS,14aR,16aS,Z)-2-((2,3-dihydro-1H-pyrano[2,3-c]isoquinolin-6-yl)oxy)-14a-(((1-(fluoromethyl)cyclopropyl)sulfonyl)carbamoyl)-7,9-dimethyl-5,16-dioxo-1,2,3,5,6,7,8,9,10,11,13a,14,14a,15,16,16a-hexadecahydrocyclopropa[e]pyrrolo[1,2-a][1,4]diazacyclopentadecin-6-yl)carbamate] | 1.01 to 5 nM | 0.51 to 1 nM
8 | COc1ccc2c(O[C@@H]3C[C@H]4C(=O)N[C@]5(C(=O)NS(=O)(=O)C6(CF)CC6)C[C@H]5/C=C\CC[C@@H](C)C[C@@H](C)[C@H](NC(=O)OC(C)(C)C(F)(F)F)C(=O)N4C3)nc3c(c2c1)CCCO3 [Compound 6076, 1,1,1-trifluoro-2-methylpropan-2-yl((2R,6S,7R,9R,13aS,14aR,16aS,Z)-14a-(((1-(fluoromethyl)cyclopropyl)sulfonyl)carbamoyl)-2-((9-methoxy-2,3-dihydro-1H-pyrano[2,3-c]isoquinolin-6-yl)oxy)-7,9-dimethyl-5,16-dioxo-1,2,3,5,6,7,8,9,10,11,13a,14,14a,15,16,16a-hexadecahydrocyclopropa[e]pyrrolo[1,2-a][1,4]diazacyclopentadecin-6-yl)carbamate] | 1.01 to 5 nM | 1.01 to 5 nM
9 | COc1ccc2c(O[C@@H]3C[C@H]4C(=O)N[C@]5(C(=O)NS(=O)(=O)C6(CF)CC6)C[C@H]5/C=C\CC[C@@H](C)C[C@@H](C)[C@H](NC(=O)OC(C)(C)C(F)F)C(=O)N4C3)nc3c(c2c1)CCCO3 [Compound 6078, 1,1-difluoro-2-methylpropan-2-yl((2R,6S,7R,9R,13aS,14aR,16aS,Z)-14a-(((1-(fluoromethyl)cyclopropyl)sulfonyl)carbamoyl)-2-((9-methoxy-2,3-dihydro-1H-pyrano[2,3-c]isoquinolin-6-yl)oxy)-7,9-dimethyl-5,16-dioxo-1,2,3,5,6,7,8,9,10,11,13a,14,14a,15,16,16a-hexadecahydrocyclopropa[e]pyrrolo[1,2-a][1,4]diazacyclopentadecin-6-yl)carbamate] | 1.01 to 5 nM | 1.01 to 5 nM
